Active and inactive are the calls of the source. The rule behind the calls is not given here.
Experiments:
[1] = target: Wee1-like protein kinase (Homo sapiens) (UniProt P30291); assay: Inhibition of Wee1 (215 to 646 residues) (unknown origin) expressed in Sf21 at 10 uM preincubated for 10 mins followed by peptide substrate addition relative to control
L3.6pl = assay: Antiproliferative activity against human L3.6 cells assessed as inhibition of cell viability at 10 uM after 48 hrs by MTT assay relative to control; format: functional
[2] = target: Inhibitor of nuclear factor kappa-B kinase subunit beta (Homo sapiens) (UniProt O14920); assay: Inhibition of IKKbeta (1 to 662 residues) (unknown origin) expressed in Sf21 cells at 10 uM preincubated for 10 mins followed by peptide substrate addition relative to control
[3] = target: Fibroblast growth factor receptor 2 (Homo sapiens) (UniProt P21802); assay: Inhibition of N-terminal GST-tagged FGFR2 (399 to 821 residues) (unknown origin) expressed in Sf21 cells at 10 uM preincubated for 10 mins followed by peptide substrate addition relative to control
HCT-116 = assay: Antiproliferative activity against human HCT-116 cells assessed as inhibition of cell viability after 48 hrs by MTT assay; format: functional, cell-based; conditions: HCT-116, 48 h
MDA-MB-231 [4] = assay: Antiproliferative activity against human MDA-MB-231 cells assessed as inhibition of cell viability after 48 hrs by MTT assay; format: functional, cell-based; conditions: MDA-MB-231, 48 h
[5] = target: RAC-alpha serine/threonine-protein kinase (Homo sapiens) (UniProt P31749); assay: Inhibition of human N-terminal His-tagged full length AKT1 (1 to 480 residues) expressed in Sf9 cells at 10 uM preincubated for 10 mins followed by peptide substrate addition relative to control
[6] = target: Signal transducer and activator of transcription 3 (Homo sapiens) (UniProt P40763); assay: Inhibition of STAT3 phosphorylation at Y705 residue in human MDA-MB-231 cells incubated for 2 hrs by Western blotting analysis; format: cell-based; conditions: dose 1-10 µM
[7] = target: Dual specificity mitogen-activated protein kinase kinase 1 (Homo sapiens) (UniProt Q02750); assay: Inhibition of N-terminal GST-tagged full length MEK1 (1 to 393 residues) (unknown origin) expressed in Sf21 cells at 10 uM preincubated for 10 mins followed by peptide substrate addition relative to control
[8] = target: Mitogen-activated protein kinase 8 (Homo sapiens) (UniProt P45983); assay: Inhibition of N-terminal GST-tagged JNK1 (2 to 364 residues) (unknown origin) expressed in Escherichia coli at 10 uM preincubated for 10 mins followed by peptide substrate addition relative to control
[9] = system: Epidermal growth factor receptor (Homo sapiens), P00533 [L858R]; assay: Inhibition of EGFR L858R mutant (669 to 1210 residues) (unknown origin) expressed in Sf21 cells at 10 uM preincubated for 10 mins followed by peptide substrate addition relative to control
[10] = target: Cyclin-dependent kinase 7 (Homo sapiens) (UniProt P50613); assay: Inhibition of CDK7 (unknown origin) at 10 uM preincubated for 10 mins followed by peptide substrate addition relative to control
[11] = target: Platelet-derived growth factor receptor beta (Homo sapiens) (UniProt P09619); assay: Inhibition of PDGFRbeta (557 to 1106 residues) (unknown origin) expressed in Sf21 at 10 uM preincubated for 10 mins followed by peptide substrate addition relative to control
[12] = target: Proto-oncogene tyrosine-protein kinase ROS (Homo sapiens) (UniProt P08922); assay: Inhibition of N-terminal GST-tagged ROS1 (1883 to 2347 residues) (unknown origin) expressed in Sf21 cells at 10 uM preincubated for 10 mins followed by peptide substrate addition relative to control
MDA-MB-231 [13] = assay: Inhibition of human MDA-MB-231 cells migration a 1000 nM after 24 hrs by crystal violet staining based transwell migration assay; format: functional, cell-based
MDA-MB-231 [14] = assay: Inhibition of colony formation in human MDA-MB-231 cells at 1 uM after 24 hrs followed by compound washout and subsequent incubation for 14 days by crystal violet staining based assay; format: functional, cell-based
[15] = target: Fibroblast growth factor receptor 4 (Homo sapiens) (UniProt P22455); assay: Inhibition of FGFR4 (460 to 802 residues) (unknown origin) expressed in Sf21 cells at 10 uM preincubated for 10 mins followed by peptide substrate addition relative to control
[16] = target: Mitogen-activated protein kinase 1 (Homo sapiens) (UniProt P28482); assay: Inhibition of N-terminal GST-tagged full length ERK2 (1 to 360 residues) (unknown origin) expressed in Escherichia coli at 10 uM preincubated for 10 mins followed by peptide substrate addition relative to control
[17] = target: Non-receptor tyrosine-protein kinase TYK2 (Homo sapiens) (UniProt P29597); assay: Inhibition of TYK2 (871 to 1187 residues) (unknown origin) expressed in Sf21 cells at 10 uM preincubated for 10 mins followed by peptide substrate addition relative to control
MDA-MB-231 [18] = assay: Effect on total STAT3 expression in human MDA-MB-231 cells at 1 to 10 uM incubated for 2 hrs by Western blotting analysis; format: functional, cell-based; conditions: dose 1-10 µM
[19] = target: RAC-beta serine/threonine-protein kinase (Homo sapiens) (UniProt P31751); assay: Inhibition of human N-terminal His-tagged full length AKT2 expressed in Sf9 cells at 10 uM preincubated for 10 mins followed by peptide substrate addition relative to control
[20] = system: Epidermal growth factor receptor (Homo sapiens), P00533 [T790M]; assay: Inhibition of EGFR T790M mutant (669 to 1210 residues) (unknown origin) expressed in Sf21 cells at 10 uM preincubated for 10 mins followed by peptide substrate addition relative to control
[21] = Lipophilicity, log P of the compound; format: physicochemical; conditions: octanol/water
[22] = target: Proto-oncogene tyrosine-protein kinase Src (Homo sapiens) (UniProt P12931); assay: Inhibition of full length SRC (1 to 536 residues) (unknown origin) expressed in Sf21 cells at 10 uM preincubated for 10 mins followed by peptide substrate addition relative to control
[23] = target: Signal transducer and activator of transcription 3 (Homo sapiens) (UniProt P40763); assay: Inhibition of STAT3 promoter activity in human MDA-MB-231 cells at 0.5 uM incubated for 24 hrs by dual luciferase reporter assay; format: cell-based
MDA-MB-231 [24] = assay: Induction of apoptosis in human MDA-MB-231 cells assessed as increase in cleaved caspase 9 expression at 1 to 10 uM incubated for 24 hrs by Western blot analysis; format: functional, cell-based; conditions: dose 1-10 µM
[25] = target: Cyclin-dependent kinase 1/cyclin B1 (Homo sapiens) (UniProt P06493+P14635); assay: Inhibition of N-terminal GST-tagged full length CDK1/cyclin B1 (unknown origin) expressed in Sf21 cells at 10 uM preincubated for 10 mins followed by peptide substrate addition relative to control
[26] = target: ALK tyrosine kinase receptor (Homo sapiens) (UniProt Q9UM73); assay: Inhibition of ALK (1058 to 1620 residues) (unknown origin) expressed in Sf21 cells at 10 uM preincubated for 10 mins followed by peptide substrate addition relative to control
[27] = target: Mitogen-activated protein kinase 9 (Homo sapiens) (UniProt P45984); assay: Inhibition of N-terminal GST-tagged JNK2 (1 to 364 residues) (unknown origin) expressed in Escherichia coli at 10 uM preincubated for 10 mins followed by peptide substrate addition relative to control

Signal transducer and activator of transcription 3 (Homo sapiens), sequence (P40763 whole entry, the tested form may be a part): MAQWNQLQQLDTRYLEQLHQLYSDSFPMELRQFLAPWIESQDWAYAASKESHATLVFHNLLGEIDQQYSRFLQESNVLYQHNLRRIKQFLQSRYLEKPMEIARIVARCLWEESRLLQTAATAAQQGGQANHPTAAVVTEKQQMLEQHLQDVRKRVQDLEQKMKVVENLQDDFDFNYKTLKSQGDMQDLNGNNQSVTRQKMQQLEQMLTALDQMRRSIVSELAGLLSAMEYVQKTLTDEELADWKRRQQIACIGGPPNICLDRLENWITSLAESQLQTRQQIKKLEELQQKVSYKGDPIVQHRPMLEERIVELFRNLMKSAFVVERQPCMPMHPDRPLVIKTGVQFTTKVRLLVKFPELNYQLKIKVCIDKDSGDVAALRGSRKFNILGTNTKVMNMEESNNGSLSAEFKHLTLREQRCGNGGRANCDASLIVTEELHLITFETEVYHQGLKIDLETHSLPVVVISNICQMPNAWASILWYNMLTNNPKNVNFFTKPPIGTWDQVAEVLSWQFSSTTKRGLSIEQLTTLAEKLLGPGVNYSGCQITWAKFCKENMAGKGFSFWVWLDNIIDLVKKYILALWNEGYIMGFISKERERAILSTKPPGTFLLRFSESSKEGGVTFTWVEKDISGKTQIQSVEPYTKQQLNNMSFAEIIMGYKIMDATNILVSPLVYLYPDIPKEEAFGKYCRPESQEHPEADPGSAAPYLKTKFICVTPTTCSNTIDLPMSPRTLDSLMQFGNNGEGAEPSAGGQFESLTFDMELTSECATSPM
Fibroblast growth factor receptor 4 (Homo sapiens), sequence (P22455 22-802 limits assumed): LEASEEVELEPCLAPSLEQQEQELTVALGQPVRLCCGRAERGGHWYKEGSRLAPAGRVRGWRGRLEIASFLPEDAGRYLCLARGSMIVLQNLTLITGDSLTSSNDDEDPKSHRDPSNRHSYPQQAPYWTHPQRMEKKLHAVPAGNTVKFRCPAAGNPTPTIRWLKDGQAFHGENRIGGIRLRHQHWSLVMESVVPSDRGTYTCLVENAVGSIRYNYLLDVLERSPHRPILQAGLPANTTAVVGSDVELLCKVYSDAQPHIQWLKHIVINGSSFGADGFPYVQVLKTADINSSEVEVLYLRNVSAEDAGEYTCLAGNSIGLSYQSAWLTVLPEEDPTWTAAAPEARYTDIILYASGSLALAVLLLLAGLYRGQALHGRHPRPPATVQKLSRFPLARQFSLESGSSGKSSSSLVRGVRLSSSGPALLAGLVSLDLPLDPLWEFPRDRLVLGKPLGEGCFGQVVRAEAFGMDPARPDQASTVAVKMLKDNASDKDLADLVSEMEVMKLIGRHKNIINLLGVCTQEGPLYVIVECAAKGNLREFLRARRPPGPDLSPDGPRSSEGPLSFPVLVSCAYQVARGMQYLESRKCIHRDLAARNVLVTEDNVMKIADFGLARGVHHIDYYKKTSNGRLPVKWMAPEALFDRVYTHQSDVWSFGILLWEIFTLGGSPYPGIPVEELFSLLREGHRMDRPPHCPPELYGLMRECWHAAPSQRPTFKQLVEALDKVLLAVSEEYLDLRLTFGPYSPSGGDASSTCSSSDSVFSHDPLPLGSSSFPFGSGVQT
Mitogen-activated protein kinase 8 (Homo sapiens), sequence (P45983 whole entry, the tested form may be a part): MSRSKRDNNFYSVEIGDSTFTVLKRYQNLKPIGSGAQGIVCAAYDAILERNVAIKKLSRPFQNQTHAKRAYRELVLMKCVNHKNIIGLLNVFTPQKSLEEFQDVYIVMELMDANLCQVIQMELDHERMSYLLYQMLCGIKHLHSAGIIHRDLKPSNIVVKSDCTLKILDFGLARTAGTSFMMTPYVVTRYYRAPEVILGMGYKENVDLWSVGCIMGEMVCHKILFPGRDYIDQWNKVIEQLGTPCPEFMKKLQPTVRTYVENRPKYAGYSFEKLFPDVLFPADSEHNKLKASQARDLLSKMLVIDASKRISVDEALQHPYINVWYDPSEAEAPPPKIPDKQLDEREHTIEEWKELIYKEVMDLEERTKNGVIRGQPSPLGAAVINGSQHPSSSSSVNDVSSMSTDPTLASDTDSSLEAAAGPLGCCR
Wee1-like protein kinase (Homo sapiens), sequence (P30291 whole entry, looked up, the tested form may be a part): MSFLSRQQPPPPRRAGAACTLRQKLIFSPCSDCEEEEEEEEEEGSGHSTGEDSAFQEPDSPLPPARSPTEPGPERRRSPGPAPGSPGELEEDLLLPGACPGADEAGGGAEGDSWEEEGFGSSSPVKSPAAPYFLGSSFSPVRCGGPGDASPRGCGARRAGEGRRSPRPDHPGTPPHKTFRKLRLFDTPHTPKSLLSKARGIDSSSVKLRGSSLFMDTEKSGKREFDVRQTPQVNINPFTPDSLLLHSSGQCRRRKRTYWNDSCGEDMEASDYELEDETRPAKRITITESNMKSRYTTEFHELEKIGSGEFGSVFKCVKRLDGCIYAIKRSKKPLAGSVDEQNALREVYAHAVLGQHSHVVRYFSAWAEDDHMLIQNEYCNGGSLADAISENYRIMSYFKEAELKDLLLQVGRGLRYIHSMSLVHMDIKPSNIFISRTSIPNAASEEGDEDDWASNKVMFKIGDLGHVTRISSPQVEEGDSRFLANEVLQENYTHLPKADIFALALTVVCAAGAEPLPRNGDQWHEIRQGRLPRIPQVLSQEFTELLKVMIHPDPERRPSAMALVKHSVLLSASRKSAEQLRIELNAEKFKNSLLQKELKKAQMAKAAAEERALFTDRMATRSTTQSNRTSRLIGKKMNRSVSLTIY
Proto-oncogene tyrosine-protein kinase Src (Homo sapiens), sequence (P12931 2-536 limits assumed): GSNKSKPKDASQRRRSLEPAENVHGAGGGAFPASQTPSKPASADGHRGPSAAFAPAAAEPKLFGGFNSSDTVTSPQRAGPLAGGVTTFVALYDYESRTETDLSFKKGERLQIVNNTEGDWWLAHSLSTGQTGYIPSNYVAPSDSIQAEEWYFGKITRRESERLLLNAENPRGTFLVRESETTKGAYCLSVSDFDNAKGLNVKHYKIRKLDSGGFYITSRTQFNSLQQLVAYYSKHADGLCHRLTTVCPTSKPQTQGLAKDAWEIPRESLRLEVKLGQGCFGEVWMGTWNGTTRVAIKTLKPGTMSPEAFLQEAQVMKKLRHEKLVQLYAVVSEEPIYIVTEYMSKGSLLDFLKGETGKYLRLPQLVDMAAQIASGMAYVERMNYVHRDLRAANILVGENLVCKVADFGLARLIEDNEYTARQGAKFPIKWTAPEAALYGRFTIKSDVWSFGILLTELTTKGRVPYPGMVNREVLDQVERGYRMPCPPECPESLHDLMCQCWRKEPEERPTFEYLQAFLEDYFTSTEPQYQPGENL
RAC-beta serine/threonine-protein kinase (Homo sapiens), sequence (P31751 whole entry, the tested form may be a part): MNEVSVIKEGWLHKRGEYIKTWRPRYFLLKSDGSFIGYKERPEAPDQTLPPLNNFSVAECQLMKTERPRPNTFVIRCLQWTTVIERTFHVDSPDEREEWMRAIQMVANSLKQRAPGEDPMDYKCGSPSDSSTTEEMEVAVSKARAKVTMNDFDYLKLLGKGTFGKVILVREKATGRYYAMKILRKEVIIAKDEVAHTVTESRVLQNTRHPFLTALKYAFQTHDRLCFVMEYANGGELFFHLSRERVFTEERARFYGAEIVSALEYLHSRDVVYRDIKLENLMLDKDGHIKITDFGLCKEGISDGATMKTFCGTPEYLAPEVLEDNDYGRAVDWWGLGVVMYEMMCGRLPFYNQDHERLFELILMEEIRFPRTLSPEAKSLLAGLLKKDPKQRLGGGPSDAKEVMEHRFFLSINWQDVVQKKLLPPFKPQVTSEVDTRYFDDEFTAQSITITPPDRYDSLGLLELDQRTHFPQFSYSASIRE
RAC-alpha serine/threonine-protein kinase (Homo sapiens), sequence (P31749 whole entry, the tested form may be a part): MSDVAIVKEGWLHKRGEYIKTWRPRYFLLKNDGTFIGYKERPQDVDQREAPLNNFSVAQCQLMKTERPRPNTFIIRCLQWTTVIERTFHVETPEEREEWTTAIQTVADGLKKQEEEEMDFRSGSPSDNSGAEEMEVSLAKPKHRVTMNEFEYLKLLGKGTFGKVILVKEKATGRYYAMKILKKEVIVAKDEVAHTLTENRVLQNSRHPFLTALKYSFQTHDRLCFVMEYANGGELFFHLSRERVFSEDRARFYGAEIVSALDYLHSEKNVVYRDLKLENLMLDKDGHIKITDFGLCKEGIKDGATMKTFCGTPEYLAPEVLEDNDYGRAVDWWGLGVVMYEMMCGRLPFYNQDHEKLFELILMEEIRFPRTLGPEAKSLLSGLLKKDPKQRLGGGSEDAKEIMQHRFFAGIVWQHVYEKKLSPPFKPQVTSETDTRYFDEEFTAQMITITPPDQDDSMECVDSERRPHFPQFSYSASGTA
Inhibitor of nuclear factor kappa-B kinase subunit beta (Homo sapiens), sequence (O14920 whole entry, the tested form may be a part): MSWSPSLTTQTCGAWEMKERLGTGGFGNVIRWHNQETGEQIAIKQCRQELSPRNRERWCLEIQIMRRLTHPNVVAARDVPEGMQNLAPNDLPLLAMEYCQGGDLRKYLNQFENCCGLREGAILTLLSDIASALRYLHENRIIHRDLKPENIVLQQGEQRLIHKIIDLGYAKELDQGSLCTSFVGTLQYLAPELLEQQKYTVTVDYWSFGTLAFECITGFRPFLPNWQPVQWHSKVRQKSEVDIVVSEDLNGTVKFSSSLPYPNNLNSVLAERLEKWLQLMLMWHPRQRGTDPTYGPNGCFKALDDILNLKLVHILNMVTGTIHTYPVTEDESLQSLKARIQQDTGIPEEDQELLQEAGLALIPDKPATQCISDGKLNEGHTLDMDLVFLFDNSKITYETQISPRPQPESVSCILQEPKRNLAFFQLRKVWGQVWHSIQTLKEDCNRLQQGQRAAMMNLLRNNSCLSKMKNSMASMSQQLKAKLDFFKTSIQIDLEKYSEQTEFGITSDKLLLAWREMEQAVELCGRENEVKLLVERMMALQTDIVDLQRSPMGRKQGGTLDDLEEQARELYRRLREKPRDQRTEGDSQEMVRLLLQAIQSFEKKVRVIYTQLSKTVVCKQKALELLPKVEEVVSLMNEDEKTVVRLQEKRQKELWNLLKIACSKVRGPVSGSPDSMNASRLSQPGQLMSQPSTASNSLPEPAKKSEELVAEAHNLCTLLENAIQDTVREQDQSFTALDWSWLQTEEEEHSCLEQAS

SMILES: CC(C)(C)OC(=O)c1ccc(NC(=O)c2ccc(Cl)c(S(N)(=O)=O)c2)cc1
- inhibition [1]: 4.76%
- inhibition at 10 µM (L3.6pl): 21.9%
- inhibition [2]: 2.87%
- inhibition [3]: 5.28%
- IC50 (HCT-116): 690 nM
- IC50 (MDA-MB-231 [4]): 610 nM
- inhibition [5]: 3.48%
- inhibition [6]: Dose-Dependent Effect
- inhibition [7]: 1.56%
- inhibition [8]: 2.52%
- inhibition [9]: 4.82%
- inhibition [10]: 6.45%
- inhibition [11]: -1.19%
- inhibition [12]: -3.38%
- inhibition (MDA-MB-231 [13]): Active
- inhibition (MDA-MB-231 [14]): Active
- inhibition [15]: -1.53%
- inhibition [16]: 0.78%
- inhibition [17]: -1.53%
- inhibition (MDA-MB-231 [18]): Active
- inhibition [19]: 3.38%
- inhibition [20]: 2.23%
- logP [21]: 1.83
- inhibition [22]: 1.42%
- inhibition [23]: 80.6%
- Activity (MDA-MB-231 [24]): Active
- inhibition [25]: -2.27%
- inhibition [26]: 5.19%
- inhibition [27]: 4.16%

From ChEMBL document CHEMBL4811240, “Discovery of N-substituted sulfamoylbenzamide derivatives as novel inhibitors of STAT3 signaling pathway based on Niclosamide” (Eur J Med Chem, 2021)
